Structures can show the parent of a compound that is named as a salt.
Experiments:
[1] = system: Streptozotocin (STZ)-induced diabetic nephropathy; test: Streptozotocin induced diabetic nephropathy (kidney fibrosis) model; format: in vivo, mouse; settings: diabetic eNOS knockout mice, 24 weeks, 0.1-100 mg/Kg
Protocol: Streptozotocin (STZ)-induced diabetic nephropathy is commonly used for creating rodent models of type 1 diabetes which develop renal injury, due to pancreatic cell damage with similarities to human diabetic nephropathy.
Diabetes is induced in eNOS knockout mice on C57BL/6 background by intraperitoneal STZ injection (55 mg/kg in 0.1 M citrate buffer) in mice of 6-9 weeks of age (see Huang C et al, Blockade of KCa3.1 ameliorates renal fibrosis through a TGF-bl/Smad pathway in diabetic mice. Diabetes, 2013 62(8):2923-2934).
Blood sugar level (BSL) is determined by tail vein blood. Mice with BSL>16 mmol/L two weeks post STZ injection are considered diabetic. Treatment with Compound 12 is carried out for 24 weeks from diagnosis of diabetes at a dose of 0.1-100 mg/Kg.

[2] = system: CCl4 induced liver fibrosis; test: CCl4 induced liver fibrosis model; format: in vivo, rat; settings: 0.1-100 mg/Kg
Protocol: An analysis of the use of LOXL2 inhibitors to treat inflammatory/fibrotic diseases is performed through the use of a CCl4 induced liver fibrosis model. Liver injury is frequently followed by complete parenchymal regeneration due to regenerative potency of hepatocytes. Continuous liver injury due to the administration of CCl4 leads to extracellular matrix accumulation, accompanied by recurrent hepatocyte necrosis, inflammation, and regenerative processes, causing liver fibrosis and consequently liver cirrhosis (see Natsume, M., et al., Attenuated liver fibrosis and depressed serum albumin levels in carbon tetrachloride-treated IL-6-deficient mice. J. Leukoc. Biol., 1999, 66, 601-608 also See Yao, Q, Y., et al. Inhibition by curcumin of multiple sites of the transforming growth factor-beta1 signalling pathway ameliorates the progression of liver fibrosis induced by carbon tetrachloride in rats. BMC Complement Altern Med. 2012 Sep. 16; 12(1):156.)
Rats are administered orally with CCl4 at a concentration of 0.25 μL/g in olive oil, 3 times per week for 6 weeks. Compound 25 is given 0.1-100 mg/Kg throughout the period of the experimental procedure or only 3 weeks after CCl4 administration and then throughout the entire study. […]

Row | Compound | kidney function by albumin/creatinine ratio quantification [1] | reduction of fibrosis by Masson's Trichrome staining (collagen expression and glomerular damage) ([1]; vs vehicle-treated group) | inhibition of liver collagen by hydroxyproline analysis ([2]; CCl4 model, statistically significant) | reduction of liver fibrosis by liver sirius red staining with quantification ([2]; rats, CCl4 orally 6 weeks, vs vehicle-treated group)
1 | CCOC(=O)c1ccc2c(c1)c(-c1cccc(S(=O)(=O)N(C)C)c1)c(C)n2C/C(F)=C/CN [Compound 12, (Z)-ethyl 1-(4-amino-2-fluorobut-2-en-1-yl)-3-(3-(N,N-dimethylsulfamoyl)phenyl)-2-methyl-1H-indole-5-carboxylate] | significant improvement | up to 50% | – | –
2 | Cc1c(-c2cccc(S(=O)(=O)N(C)C)c2)c2ncccc2n1C/C(F)=C/CN [Compound 25, (Z)-3-(1-(4-amino-2-fluorobut-2-en-1-yl)-2-methyl-1H-pyrrolo[3,2-b]pyridin-3-yl)-N,N-dimethylbenzenesulfonamide Dihydrochloride] | – | – | > 30% | up to 50%
